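Exposure lasted 48 hours, with cells grown in 96-well plates and compounds tested at five concentrations. At the GI50, growth is halved.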 Activity calls are given as the source filed them. No stated cut-off is given here; in the data, active = GI50 up to about 1.1 µM and inactive = higher.
What was measured:
Assay in all cases: DTP human tumour cell line panel, 48 h
A549 = tested on: A549
Malme-3M = tested on: Malme-3M
DLD-1 = tested on: DLD-1
SK-MEL-28 = tested on: SK-MEL-28
NCI-H226 = tested on: NCI-H226
COLO 205 = tested on: COLO 205
CCRF-CEM = tested on: CCRF-CEM
SR = tested on: SR
ACHN = tested on: ACHN
KM-20L2 = tested on: KM-20L2
LOX IMVI = tested on: LOX IMVI
OVCAR-5 = tested on: OVCAR-5
SN12C = tested on: SN12C
786-0 = tested on: 786-0
HCT-15 = tested on: HCT-15
RPMI-8226 = tested on: RPMI-8226
HOP-62 = tested on: HOP-62
EKVX = tested on: EKVX
IGROV-1 = tested on: IGROV-1
HCT-116 = tested on: HCT-116
SNB-78 = tested on: SNB-78
NCI-H522 = tested on: NCI-H522
UACC-62 = tested on: UACC-62
NCI-H460 = tested on: NCI-H460
TK-10 = tested on: TK-10
SF-295 = tested on: SF-295
SK-MEL-2 = tested on: SK-MEL-2
SNB-75 = tested on: SNB-75
SK-OV-3 = tested on: SK-OV-3
HT-29 = tested on: HT-29
MOLT-4 = tested on: MOLT-4
M14 = tested on: M14
SF-268 = tested on: SF-268
UO-31 = tested on: UO-31
LXFL 529 = tested on: LXFL 529
K562 = tested on: K562
SK-MEL-5 = tested on: SK-MEL-5
SF-539 = tested on: SF-539
M19-MEL = tested on: M19-MEL
U-251 = tested on: U-251
NCI-H23 = tested on: NCI-H23
CAKI-1 = tested on: CAKI-1
OVCAR-8 = tested on: OVCAR-8
SNB-19 = tested on: SNB-19
RXF 393 = tested on: RXF 393
OVCAR-3 = tested on: OVCAR-3
SW-620 = tested on: SW-620
HCC 2998 = tested on: HCC 2998
HL-60 = tested on: HL-60
DMS-273 = tested on: DMS-273
UACC-257 = tested on: UACC-257
BT-549 = tested on: BT-549
MDA-MB-435 = tested on: MDA-MB-435
T47D = tested on: T47D
Hs-578T = tested on: Hs-578T
MDA-N = tested on: MDA-N
A498 = tested on: A498
NCI/ADR-RES = tested on: NCI/ADR-RES
KM12 = tested on: KM12
MDA-MB-231 = tested on: MDA-MB-231
OVCAR-4 = tested on: OVCAR-4
MCF7 = tested on: MCF7
DU-145 = tested on: DU-145
HOP-92 = tested on: HOP-92
PC-3 = tested on: PC-3

C=CCn1c(=S)sc2c(C(=O)OCC)c3c(C)cc(C)cn3c2c1=O
GI50 (A549): > 100 µM (inactive)
GI50 (Malme-3M): > 100 µM (inactive)
GI50 (DLD-1): > 100 µM (inactive)
GI50 (SK-MEL-28): > 100 µM (inactive)
GI50 (NCI-H226): > 100 µM (inactive)
GI50 (COLO 205): > 100 µM (inactive)
GI50 (CCRF-CEM): > 100 µM (inactive)
GI50 (SR): > 100 µM (inactive)
GI50 (ACHN): > 100 µM (inactive)
GI50 (KM-20L2): > 100 µM (inactive)
GI50 (LOX IMVI): > 100 µM (inactive)
GI50 (OVCAR-5): > 100 µM (inactive)
GI50 (SN12C): > 100 µM (inactive)
GI50 (786-0): 61.1 µM (inactive)
GI50 (HCT-15): > 100 µM
GI50 (RPMI-8226): > 100 µM (inactive)
GI50 (HOP-62): > 100 µM (inactive)
GI50 (EKVX): > 100 µM (inactive)
GI50 (IGROV-1): > 100 µM (inactive)
GI50 (HCT-116): > 100 µM (inactive)
GI50 (SNB-78): > 100 µM (inactive)
GI50 (NCI-H522): 65.6 µM (inactive)
GI50 (UACC-62): > 100 µM (inactive)
GI50 (NCI-H460): > 100 µM (inactive)
GI50 (TK-10): > 100 µM (inactive)
GI50 (SF-295): 86.7 µM (inactive)
GI50 (SK-MEL-2): > 100 µM (inactive)
GI50 (SNB-75): 45.4 µM (inactive)
GI50 (SK-OV-3): 90.8 µM (inactive)
GI50 (HT-29): > 100 µM (inactive)
GI50 (MOLT-4): > 100 µM (inactive)
GI50 (M14): > 100 µM (inactive)
GI50 (SF-268): 67.5 µM (inactive)
GI50 (UO-31): > 100 µM (inactive)
GI50 (LXFL 529): > 100 µM (inactive)
GI50 (K562): > 100 µM (inactive)
GI50 (SK-MEL-5): > 100 µM (inactive)
GI50 (SF-539): 80.5 µM (inactive)
GI50 (M19-MEL): > 100 µM (inactive)
GI50 (U-251): 75.9 µM (inactive)
GI50 (NCI-H23): > 100 µM (inactive)
GI50 (CAKI-1): > 100 µM (inactive)
GI50 (OVCAR-8): > 100 µM (inactive)
GI50 (SNB-19): > 100 µM (inactive)
GI50 (RXF 393): > 100 µM (inactive)
GI50 (OVCAR-3): > 100 µM (inactive)
GI50 (SW-620): > 100 µM (inactive)
GI50 (HCC 2998): > 100 µM (inactive)
GI50 (HL-60): > 100 µM (inactive)
GI50 (DMS-273): > 100 µM (inactive)
GI50 (UACC-257): > 100 µM (inactive)

O=C(N/N=C\C=C\c1ccc([N+](=O)[O-])o1)C(=O)N/N=C\C=C\c1ccc([N+](=O)[O-])o1
GI50 (A549): > 100 µM (inactive)
GI50 (Malme-3M): > 100 µM (inactive)
GI50 (SK-MEL-28): > 100 µM (inactive)
GI50 (NCI-H226): > 100 µM (inactive)
GI50 (COLO 205): > 100 µM (inactive)
GI50 (CCRF-CEM): 1.36 µM (inactive)
GI50 (SR): 35.5 µM (inactive)
GI50 (ACHN): > 100 µM (inactive)
GI50 (LOX IMVI): 4.94 µM (inactive)
GI50 (BT-549): > 100 µM (inactive)
GI50 (OVCAR-5): > 100 µM (inactive)
GI50 (SN12C): > 100 µM (inactive)
GI50 (MDA-MB-435): > 100 µM (inactive)
GI50 (T47D): 36.2 µM (inactive)
GI50 (786-0): > 100 µM (inactive)
GI50 (HCT-15): 81.7 µM
GI50 (Hs-578T): > 100 µM (inactive)
GI50 (MDA-N): > 100 µM (inactive)
GI50 (A498): > 100 µM (inactive)
GI50 (RPMI-8226): 28.4 µM (inactive)
GI50 (HOP-62): 82.2 µM (inactive)
GI50 (EKVX): > 100 µM (inactive)
GI50 (IGROV-1): 78.2 µM (inactive)
GI50 (NCI/ADR-RES): 26 µM (inactive)
GI50 (KM12): > 100 µM (inactive)
GI50 (MDA-MB-231): > 100 µM (inactive)
GI50 (HCT-116): 25.1 µM (inactive)
GI50 (NCI-H522): > 100 µM (inactive)
GI50 (UACC-62): > 100 µM (inactive)
GI50 (NCI-H460): > 100 µM (inactive)
GI50 (TK-10): 56.9 µM (inactive)
GI50 (SF-295): > 100 µM (inactive)
GI50 (SK-MEL-2): > 100 µM (inactive)
GI50 (SNB-75): > 100 µM (inactive)
GI50 (SK-OV-3): > 100 µM (inactive)
GI50 (HT-29): > 100 µM (inactive)
GI50 (MOLT-4): 24.1 µM (inactive)
GI50 (M14): 32.1 µM (inactive)
GI50 (OVCAR-4): 34.9 µM (inactive)
GI50 (MCF7): 44.1 µM (inactive)
GI50 (SF-268): > 100 µM (inactive)
GI50 (UO-31): > 100 µM (inactive)
GI50 (K562): > 100 µM (inactive)
GI50 (SK-MEL-5): > 100 µM (inactive)
GI50 (SF-539): 3.19 µM (inactive)
GI50 (U-251): > 100 µM (inactive)
GI50 (NCI-H23): > 100 µM (inactive)
GI50 (CAKI-1): > 100 µM (inactive)
GI50 (DU-145): > 100 µM (inactive)
GI50 (OVCAR-8): 23.2 µM (inactive)
GI50 (SNB-19): > 100 µM (inactive)
GI50 (RXF 393): > 100 µM (inactive)
GI50 (HOP-92): > 100 µM (inactive)
GI50 (OVCAR-3): 24.1 µM (inactive)
GI50 (SW-620): 24.5 µM (inactive)
GI50 (HCC 2998): > 100 µM (inactive)
GI50 (HL-60): 20 µM (inactive)
GI50 (PC-3): > 100 µM (inactive)
GI50 (UACC-257): > 100 µM (inactive)
